Assay results published in patent publication US12319672B2, “Alpha-D-galactopyranoside derivatives” (Idorsia Pharmaceuticals Ltd, priority 2019, dated 2025).

Columns and labels:
human Gal-3 (hGal-3) = human Gal-3 (hGal-3) (Homo sapiens (Human), UniProt P17931); experiment: Competitive binding assay: binding of biotinylated hGal-3 to microplate-adsorbed asialofetuin (ASF); conditions: Activity on hGal-3; mean values of several measurements
Outline: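 Compounds in DMSO dilution series competed with 300-1000 ng/mL biotinylated hGal-3 for asialofetuin adsorbed on the plate (3 h, 4° C). Streptavidin-peroxidase at 80 ng/mL (1 h, 4° C) with ABTS gave a spectrophotometric read-out, and IC50 was reported as the mean of repeat runs.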

human Gal-1 (hGal-1) = experiment: Competitive binding assay: binding of biotinylated hGal-1 to microplate-adsorbed asialofetuin (ASF); conditions: Activities on hGal-1; mean values of several measurements
Outline: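 Spectrophotometric readout (streptavidin-peroxidase, ABTS) of biotinylated galectin retained on ASF-coated wells. Biotinylated hGal-1 or hGal-3, 300-1000 ng/mL, co-incubated with test compound 3 h at 4° C, then washed. Mean IC50 from repeat runs.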

Chain of human Gal-3 (hGal-3) (P17931 whole entry): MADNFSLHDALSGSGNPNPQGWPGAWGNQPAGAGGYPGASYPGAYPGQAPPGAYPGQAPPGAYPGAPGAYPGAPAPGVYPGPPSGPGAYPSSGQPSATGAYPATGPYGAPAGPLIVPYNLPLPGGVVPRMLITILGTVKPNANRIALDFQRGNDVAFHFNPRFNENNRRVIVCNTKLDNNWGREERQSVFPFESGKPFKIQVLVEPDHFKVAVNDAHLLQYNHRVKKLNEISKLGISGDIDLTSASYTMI
Chain of human Gal-1 (hGal-1) (P09382 2-135 limits assumed): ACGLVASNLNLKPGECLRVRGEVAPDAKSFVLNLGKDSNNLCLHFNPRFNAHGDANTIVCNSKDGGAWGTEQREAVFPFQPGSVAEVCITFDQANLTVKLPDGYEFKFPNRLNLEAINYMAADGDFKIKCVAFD

| SMILES | IC50 (human Gal-3 (hGal-3)) | IC50 (human Gal-1 (hGal-1)) |
| --- | --- | --- |
| CO[C@@H]1[C@@H](n2cc(-c3cc(F)c(F)c(F)c3)nn2)[C@@H](O)[C@@H](CO)O[C@@H]1Cc1cc(C2(C)CCCC2)no1 [Ex 1.286] | 230 nM | 3080 nM |
| COc1ccc(C2=NOC(C[C@H]3O[C@H](CO)[C@H](O)[C@H](n4cc(-c5cc(F)c(F)c(F)c5)nn4)[C@H]3OC)C2)cc1 (stereo partly drawn) [Ex 1.294] | 1540 nM | 14000 nM |
| OC[C@H]1O[C@H](CC2CC(c3cc(Cl)ccc3Cl)=NO2)[C@H](O)[C@@H](n2cc(-c3cc(F)c(F)c(F)c3)nn2)[C@H]1O (stereo partly drawn) [Ex 1.295] | 1800 nM | 17100 nM |
| COc1ccc(-c2cc(C[C@H]3O[C@H](CO)[C@H](O)[C@H](n4cc(-c5cc(F)c(F)c(F)c5)nn4)[C@H]3O)no2)cc1 [Ex 1.296] | 1410 nM | 52200 nM |
| CC(C)(C)OC(=O)N1CCC(C2=NOC(C[C@H]3O[C@H](CO)[C@H](O)[C@H](n4cc(-c5c(F)cccc5F)nn4)[C@H]3O)C2)CC1 (stereo partly drawn) [Ex 1.298] | 2500 nM | 990 nM |
| COc1cccc(-c2cn([C@H]3[C@@H](O)[C@@H](CO)O[C@H](CC4CC(C5CCN(C(=O)OC(C)(C)C)CC5)=NO4)[C@@H]3O)nn2)c1 (stereo partly drawn) [Ex 1.300] | 1410 nM | 2270 nM |
| CC(C)(C)OC(=O)N1CCC(C2=NOC(C[C@H]3O[C@H](CO)[C@H](O)[C@H](n4cc(-c5cccc(C(F)(F)F)c5)nn4)[C@H]3O)C2)CC1 (stereo partly drawn) [Ex 1.301] | 2700 nM | 2890 nM |
| CO[C@@H]1[C@@H](n2cc(-c3cc(F)c(F)c(F)c3)nn2)[C@@H](O)[C@@H](CO)O[C@@H]1Cc1cc(C(C)(C)C(F)F)no1 [Ex 1.303] | 140 nM | 550 nM |
| CO[C@@H]1[C@@H](n2cc(-c3ccc4ccccc4c3)nn2)[C@@H](O)[C@@H](CO)O[C@@H]1CC1CC(C2CCN(C(=O)OC(C)(C)C)CC2)=NO1 (stereo partly drawn) [Ex 1.304] | 1620 nM | 3910 nM |
| CO[C@@H]1[C@@H](n2cc(-c3cccc4ccccc34)nn2)[C@@H](O)[C@@H](CO)O[C@@H]1CC1CC(C2CCN(C(=O)OC(C)(C)C)CC2)=NO1 (stereo partly drawn) [Ex 1.305] | 1860 nM | 1180 nM |
| CO[C@@H]1[C@@H](n2cc(-c3cc(F)c(F)c(F)c3)nn2)[C@@H](O)[C@@H](CO)O[C@@H]1Cc1cc(C)no1 [Ex 1.306] | 1220 nM | 6190 nM |
| CCc1cc(C[C@H]2O[C@H](CO)[C@H](O)[C@H](n3cc(-c4cc(F)c(F)c(F)c4)nn3)[C@H]2OC)on1 [Ex 1.307] | 670 nM | 7220 nM |
| CO[C@@H]1[C@@H](n2cc(-c3cc(F)c(F)c(F)c3)nn2)[C@@H](O)[C@@H](CO)O[C@@H]1Cc1cc(C(C)C)no1 [Ex 1.308] | 180 nM | 2370 nM |
| CCOC(C)(C)c1cc(C[C@H]2O[C@H](CO)[C@H](O)[C@H](n3cc(-c4cc(F)c(F)c(F)c4)nn3)[C@H]2OC)on1 [Ex 1.309] | 690 nM | 2740 nM |
| CO[C@@H]1[C@@H](n2cc(-c3ccccc3)nn2)[C@@H](O)[C@@H](CO)O[C@@H]1CC1CC(C2CCN(C(=O)OC(C)(C)C)CC2)=NO1 (stereo partly drawn) [Ex 1.310] | 3620 nM | 480 nM |
| CO[C@@H]1[C@@H](n2cc(-c3nc(Br)cs3)nn2)[C@@H](O)[C@@H](CO)O[C@@H]1CC1CC(C2CCN(C(=O)OC(C)(C)C)CC2)=NO1 (stereo partly drawn) [Ex 1.311] | 2380 nM | 65 nM |
| CO[C@@H]1[C@@H](n2cc(-c3cc(F)c(F)c(F)c3)nn2)[C@@H](O)[C@@H](CO)O[C@@H]1Cc1cc(C2(CC#N)CC2)no1 [Ex 1.313] | 130 nM | 2940 nM |
| COCC(C)(C)c1cc(C[C@H]2O[C@H](CO)[C@H](O)[C@H](n3cc(-c4cc(F)c(F)c(F)c4)nn3)[C@H]2OC)on1 [Ex 1.314] | 130 nM | 1380 nM |
| CO[C@@H]1[C@@H](n2cc(-c3cc(F)c(F)c(F)c3)nn2)[C@@H](O)[C@@H](CO)O[C@@H]1Cc1cc(C(C)(C)CNC(=O)OC(C)(C)C)no1 [Ex 1.315] | 270 nM | 2210 nM |
| CO[C@@H]1[C@@H](n2cc(-c3cc(F)c(F)c(F)c3)nn2)[C@@H](O)[C@@H](CO)O[C@@H]1Cc1cc(C(C)(C)CN)no1 [Ex 1.316] | 190 nM | 2200 nM |
| CO[C@@H]1[C@@H](n2cc(-c3ccc(C)c(F)c3F)nn2)[C@@H](O)[C@@H](CO)O[C@@H]1Cc1cc(C(O)(c2ccccn2)C2CC2)on1 (stereo partly drawn) [Ex 1.317] | 310 nM | 9690 nM |
| CO[C@@H]1[C@@H](n2cc(-c3ccc(C)c(F)c3F)nn2)[C@@H](O)[C@@H](CO)O[C@@H]1Cc1cc(C(C)(O)c2ccccc2)on1 (stereo partly drawn) [Ex 1.318] | 160 nM | 8870 nM |
| CO[C@@H]1[C@@H](n2cc(-c3ccc(C)c(F)c3F)nn2)[C@@H](O)[C@@H](CO)O[C@@H]1Cc1cc(C2(O)CC2)on1 [Ex 1.319] | 140 nM | 7160 nM |
| CO[C@@H]1[C@@H](n2cc(-c3ccc(C)c(F)c3F)nn2)[C@@H](O)[C@@H](CO)O[C@@H]1Cc1cc(C2(C)COC2)on1 [Ex 1.320] | 75 nM | 2620 nM |
| CO[C@@H]1[C@@H](n2cc(-c3ccc(C)c(F)c3F)nn2)[C@@H](O)[C@@H](CO)O[C@@H]1Cc1cc(C(C)(O)c2ccccc2F)on1 (stereo partly drawn) [Ex 1.321] | 400 nM | 9170 nM |

Continued, values first:

| IC50 (human Gal-3 (hGal-3)) | IC50 (human Gal-1 (hGal-1)) | SMILES |
| --- | --- | --- |
| 49 nM | 380 nM | CO[C@@H]1[C@@H](n2cc(-c3ccc(F)c(F)c3F)nn2)[C@@H](O)[C@@H](CO)O[C@@H]1Cc1cc(C2(C)CCOCC2)no1 [Ex 1.283] |
| 150 nM | 5850 nM | CO[C@@H]1[C@@H](n2cc(-c3ccc(C)c(F)c3F)nn2)[C@@H](O)[C@@H](CO)O[C@@H]1Cc1cc(C2(C)CCOCC2)no1 [Ex 1.284] |
| 51 nM | 1100 nM | CO[C@@H]1[C@@H](n2cc(-c3ccc(Cl)c(F)c3F)nn2)[C@@H](O)[C@@H](CO)O[C@@H]1Cc1cc(C2(C)CCOCC2)no1 [Ex 1.285] |
| 69 nM | 590 nM | CO[C@@H]1[C@@H](n2cc(-c3ccc(F)c(F)c3F)nn2)[C@@H](O)[C@@H](CO)O[C@@H]1Cc1cc(C2(C)CCCC2)no1 [Ex 1.287] |
| 63 nM | 5750 nM | CO[C@@H]1[C@@H](n2cc(-c3ccc(C)c(F)c3F)nn2)[C@@H](O)[C@@H](CO)O[C@@H]1Cc1cc(C2(C)CCCC2)no1 [Ex 1.288] |
| 59 nM | 1770 nM | CO[C@@H]1[C@@H](n2cc(-c3ccc(Cl)c(F)c3F)nn2)[C@@H](O)[C@@H](CO)O[C@@H]1Cc1cc(C2(C)CCCC2)no1 [Ex 1.289] |
| 270 nM | 2120 nM | CO[C@@H]1[C@@H](n2cc(-c3cc(F)c(F)c(F)c3)nn2)[C@@H](O)[C@@H](CO)O[C@@H]1Cc1cc(C2(C#N)CCCC2)no1 [Ex 1.290] |
| 140 nM | 940 nM | CO[C@@H]1[C@@H](n2cc(-c3ccc(F)c(F)c3F)nn2)[C@@H](O)[C@@H](CO)O[C@@H]1Cc1cc(C2(C#N)CCCC2)no1 [Ex 1.291] |
| 51 nM | 3540 nM | CO[C@@H]1[C@@H](n2cc(-c3ccc(C)c(F)c3F)nn2)[C@@H](O)[C@@H](CO)O[C@@H]1Cc1cc(C2(C#N)CCCC2)no1 [Ex 1.292] |
| 93 nM | 2920 nM | CO[C@@H]1[C@@H](n2cc(-c3ccc(Cl)c(F)c3F)nn2)[C@@H](O)[C@@H](CO)O[C@@H]1Cc1cc(C2(C#N)CCCC2)no1 [Ex 1.293] |
| 140 nM | 4240 nM | CO[C@@H]1[C@@H](n2cc(-c3cc(F)c(F)c(F)c3)nn2)[C@@H](O)[C@@H](CO)O[C@@H]1Cc1cc(C2(O)CCCC2)no1 [Ex 1.312] |
